Experimental findings from patent publication US4486415A, “Cyclic hexapeptide somatostatin analogs” (Merck & Co., Inc., priority 1983, dated 1984) are described below.

Square brackets hold non-standard residues; d marks the D form. Peptide text beside a SMILES is read from it. NMeF = CN[C@@H](Cc1ccccc1)C(=O)O; NMeK = CN[C@@H](CCCCN)C(=O)O; dNMeK = CN[C@H](CCCCN)C(=O)O

Assay [1] has as its system growth hormone. As to the kind of experiment: in vitro test for the inhibition of growth hormone release, cultured rat pituitary cells. Conditions: multiples or fractions of the effect of somatostatin (=1), fiducial limits in parentheses, 4 hours incubation. The assay is classed as cell-based. On the procedure: The instant cyclic hexapeptide analogs of somatostatin are tested and compared with the effects of somatostatin in an in vitro test for the inhibition of growth hormone. The test is described as follows:
"Rat pituitaries were isolated according to the procedures of Vale and Grant "In vitro Pituitary Hormone Secretion Assay for Hypophysiotropic Substances" in Methods in Enzymology, Vol. XXXVII, eds. O'Malley, B.W. and Hardman, J.G. (Academic Press, Inc., New York) pp. 5-93 (1975).
After 4 days in culture, the cells were washed and incubated for 4 hours in Dulbecco-modified Eagle's medium in the presence or absence of graded doses of each analog or somatostatin. The medium was then collected for subsequent growth hormone determinatin by a double antibody radioimmunoassay for rat growth hormone."

Assay [2] concerns portal vein insulin. As to the kind of experiment: decrease of portal vein insulin in anesthetized rats. It counts as in vivo, rat. Conditions: multiples or fractions of the effect of somatostatin (=1), fiducial limits in parentheses, external jugular vein, portal blood after 5 minutes. On the procedure:
(§1) Analogs of somatostatin were compared to somatostatin in their ability to decrease the levels of portal vein glucagon and insulin in anesthetized rates. Male Sprague-Dawley rats (Charles River CD) weighing 160-200 g were anesthetized with urethane (150 mg/100 g of body weight; Aldrich). Saline or peptides were administered via the external jugular vein. After 5 minutes, the portal vein was exposed, and blood was collected via syringe containing 3 mg of EDTA and placed in chilled tubes containing 100 μl of Trasylol (FBA Pharmaceuticals) for subsequent hormone analysis. Plasma levels of glucagon were determined by the method of Faloona and Unger, Methods of Hormone Radioimmunoassay, Jaffe and Behrman (Eds), Academic Press, New York, Vol. II, pp. 257-527 (1976), utilizing glucagon antisera 30K obtained from R. Unger (Dallas, TX). Plasma levels of insulin were determined by a modification of the procedure of Herbert et al., J. Clin. Endocrinol. Metab., 25, 1375-1384 (1965).

For assay [3], the system named is portal vein glucagon. Kind of assay: decrease of portal vein glucagon in anesthetized rats. Conditions: multiples or fractions of the effect of somatostatin (=1), fiducial limits in parentheses, external jugular vein, portal blood after 5 minutes. It counts as in vivo, rat. On the procedure:
as §1

Assay [4] has as its system pentagastrin evoked gastric secretion. Kind of assay: inhibition of pentagastrin evoked gastric secretion in the chronic fistula dog. Conditions: Dose 0.8 μg/ml./min., infusion 0-60 min., relative to placebo trial; for Gastric Secretion & Inhibition, Acid Concentration 0-30 / Gastric Secretion & Inhibition, Vol. 0-30: 0-30 min; for Gastric Secretion & Inhibition, Acid Concentration 30-60 / Gastric Secretion & Inhibition, Vol. 30-60: 30-60 min; for Gastric Secretion & Inhibition, Acid Concentration 60-90 / Gastric Secretion & Inhibition, Vol. 60-90: 60-90 min; for Gastric Secretion & Inhibition, Acid Concentration 90-120 / Gastric Secretion & Inhibition, Vol. 90-120: 90-120 min. The assay is classed as in vivo. On the procedure: The effects of the instant cyclichexapeptide analogs of somatostatin are determined by the following procedure.
Compounds were tested for their ability to inhibit pentagastrin evoked gastric secretion in the chronic fistula dog. Female beagle dogs with a chronic gastric fistula were given pentagastrin (2.5 μg./kg./hour, i.v. from -60 to 120 min.) and gastric outputs were collected via the fistula cannula. Samples were analyzed at 30 minute intervals for volume (Ml.) and titratable acid (mEq/L) (Titration to pH 7 with 0.01N NaOH); total acid output (mEq) was calculated as the production of output volume and acid concentration. Test compounds were infused at a constant rate from 0 to 60 minutes. Data have been expressed as percent change of total acid output relative to a placebo trial in the same animals.

For `C[C@@H](O)[C@@H]1NC(=O)[C@H](CCCCN)NC(=O)[C@@H](Cc2c[nH]c3ccccc23)NC(=O)[C@H](Cc2ccccc2)NC(=O)[C@@H]2CCCN2C(=O)[C@H](Cc2ccccc2)N(C)C1=O` [Cyclo(D-Trp-Lys-Thr-N-Me-Phe-Pro-Phe)] (cyclo(F[dW]KT[NMeF]P)), the “Growth Hormone Release Inhibition” value in assay [1] is reported as 0.53(0.34,0.82). Besides, the “Insulin Inhibition” value in assay [2] is listed as 1.1(0.6,1.7). Also, the “Glucagon Inhibition” value in assay [3] is given as 2.0.

In the case of `C[C@@H](O)[C@@H]1NC(=O)[C@@H](CCCCN)N(C)C(=O)[C@@H](Cc2c[nH]c3ccccc23)NC(=O)[C@H](Cc2ccccc2)NC(=O)[C@@H]2CCCN2C(=O)[C@H](Cc2ccccc2)NC1=O` [Cyclo-(Pro-Phe-D-Trp-N-Me-D-Lys-Thr-Phe)] (cyclo(FPF[dW][dNMeK]T)), the “Growth Hormone Release Inhibition” value in assay [1] was 1.5(1.2,1.9). For the same compound, the “Insulin Inhibition” value in assay [2] is listed as 0.4(0.01,1.9). In assay [4], the “Gastric Secretion & Inhibition, Acid Concentration 0-30” value is 44%; the “Gastric Secretion & Inhibition, Vol. 0-30” value is given as 82%; the “Gastric Secretion & Inhibition, Acid Concentration 30-60” value is given as 51%; the “Gastric Secretion & Inhibition, Vol. 30-60” value was 89%. For the same compound, in assay [4], the “Gastric Secretion & Inhibition, Acid Concentration 60-90” value came to 6%; the “Gastric Secretion & Inhibition, Vol. 60-90” value was 49%; the “Gastric Secretion & Inhibition, Acid Concentration 90-120” value is given as 0%; the “Gastric Secretion & Inhibition, Vol. 90-120” value stood at 60%. Besides, in assay [3], the “Glucagon Inhibition” value is listed as 0.4.

Turning to `C[C@@H](O)[C@@H]1NC(=O)[C@@H](CCCCN)N(C)C(=O)[C@H](Cc2c[nH]c3ccccc23)NC(=O)[C@H](Cc2ccccc2)NC(=O)[C@@H]2CCCN2C(=O)[C@H](Cc2ccccc2)NC1=O` [Cyclo(Pro--Phe--L-Trp--D-N--Me--Lys--Thr--Phe)] (cyclo(FPFW[dNMeK]T)), the “Growth Hormone Release Inhibition” value in assay [1] is on record as 0.05(0.04,0.07). Further, the “Insulin Inhibition” value in assay [2] amounted to 0.07.

For the compound `C[C@@H](O)[C@@H]1NC(=O)[C@H](CCCCN)N(C)C(=O)[C@@H](Cc2c[nH]c3ccccc23)NC(=O)[C@H](Cc2ccccc2)NC(=O)[C@@H]2CCCN2C(=O)[C@H](Cc2ccccc2)NC1=O` [Cyclo(D-Trp-N-Me-Lys-Thr-Phe-Pro-Phe)] (cyclo(FPF[dW][NMeK]T)), the “Growth Hormone Release Inhibition” value in assay [1] was 1.6(0.7,3.4). Besides, in assay [2], the “Insulin Inhibition” value is listed as 0.5(0.1,1.8). Besides, in assay [4], the “Gastric Secretion & Inhibition, Acid Concentration 0-30” value came to 9%; the “Gastric Secretion & Inhibition, Vol. 0-30” value is recorded as 78%; the “Gastric Secretion & Inhibition, Acid Concentration 30-60” value came to 49%; the “Gastric Secretion & Inhibition, Vol. 30-60” value is recorded as 82%. Further, in assay [4], the “Gastric Secretion & Inhibition, Acid Concentration 60-90” value was determined as 43%; the “Gastric Secretion & Inhibition, Vol. 60-90” value was 61%; the “Gastric Secretion & Inhibition, Acid Concentration 90-120” value turned out to be 32%; the “Gastric Secretion & Inhibition, Vol. 90-120” value came to 60%. For the same compound, in assay [3], the “Glucagon Inhibition” value is “Active”.

For the compound `C[C@@H](O)[C@@H]1NC(=O)[C@H](CCCCN)N(C)C(=O)[C@H](Cc2c[nH]c3ccccc23)NC(=O)[C@H](Cc2ccccc2)NC(=O)[C@@H]2CCCN2C(=O)[C@H](Cc2ccccc2)NC1=O` [Cyclo-(Pro-Phe-L-Trp-N-Me-Lys-Thr-Phe)] (cyclo(FPFW[NMeK]T)), in assay [1], the “Growth Hormone Release Inhibition” value is on record as 0.1(0.09,0.2). Further, in assay [2], the “Insulin Inhibition” value was 0.3(0.1,0.7). Besides, the “Glucagon Inhibition” value in assay [3] is given as 0.2.
